{
  "source": "PubChem BioAssay AID328",
  "about": "(DTP/NCI, 2004)",
  "test_system": "BDF1 mice, P388 leukemia ip, median survival T/C",
  "assay": "NCI In Vivo Anticancer Drug Screen. Data for tumor model P388 Leukemia (intraperitoneal) in B6D2F1 (BDF1) mice",
  "conditions": "endpoint: median survival time, higher = longer survival",
  "procedure,_shortened": "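Read-out is survival of treated animals expressed relative to the vehicle group, as a T/C ratio.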",
  "key": {"[1]": {"conditions": "dose: 200.0 mg/kg/injection, schedule: Q01DX009 (ip), vehicle: Klucel (hydroxypropylcellulose) (HPC)"}, "[2]": {"conditions": "dose: 400.0 mg/kg/injection, schedule: Q01DX009 (ip), vehicle: Klucel (hydroxypropylcellulose) (HPC)"}, "[3]": {"conditions": "dose: 25.0 mg/kg/injection, schedule: Q01DX009 (ip), vehicle: saline with Tween-80"}, "[4]": {"conditions": "dose: 50.0 mg/kg/injection, schedule: Q01DX009 (ip), vehicle: saline with Tween-80"}, "[5]": {"conditions": "dose: 50.0 mg/kg/injection, schedule: Q04DX003 (ip), vehicle: saline with Tween-80"}, "[6]": {"conditions": "dose: 100.0 mg/kg/injection, schedule: Q04DX003 (ip), vehicle: saline with Tween-80"}, "[7]": {"conditions": "dose: 200.0 mg/kg/injection, schedule: Q04DX003 (ip), vehicle: saline with Tween-80"}, "[8]": {"conditions": "dose: 400.0 mg/kg/injection, schedule: Q04DX003 (ip), vehicle: saline with Tween-80"}},
  "note": "Several values for one entry are separate records, joined by “and”; a condition that tells them apart may be missing. Equal entries are not always repeated. Toxic doses and inconclusive results are not listed.",
  "data": [
    {"smiles": "O=C1OC(c2ccccc2)(c2ccccc2)c2ccccc21", "values": [
      {"measurement": "T/C", "setting": "dose: 45.0 mg/kg/injection, schedule: Q01DX009 (ip), vehicle: Klucel (hydroxypropylcellulose) (HPC)", "value": "100 % of control"},
      {"measurement": "T/C", "setting": "dose: 65.0 mg/kg/injection, schedule: Q01DX009 (ip), vehicle: Klucel (hydroxypropylcellulose) (HPC)", "value": "90 % of control"},
      {"measurement": "T/C", "setting": "dose: 150.0 mg/kg/injection, schedule: Q01DX009 (ip), vehicle: Klucel (hydroxypropylcellulose) (HPC)", "value": "90 % of control"},
      {"measurement": "T/C", "setting": "[1]", "value": "90 % of control"},
      {"measurement": "T/C", "setting": "[2]", "value": "86 % of control"}
    ]},
    {"smiles": "COc1cc2ccc3c(c2cc1OC)C=NCC3", "values": [
      {"measurement": "T/C", "setting": "dose: 1.56 mg/kg/injection, schedule: Q01DX009 (ip), vehicle: saline", "value": "100 % of control"},
      {"measurement": "T/C", "setting": "dose: 1.56 mg/kg/injection, schedule: Q04DX003 (ip), vehicle: saline", "value": "95 % of control"},
      {"measurement": "T/C", "setting": "dose: 3.13 mg/kg/injection, schedule: Q01DX009 (ip), vehicle: saline", "value": "110 % of control"},
      {"measurement": "T/C", "setting": "dose: 3.13 mg/kg/injection, schedule: Q04DX003 (ip), vehicle: saline", "value": "100 % of control"},
      {"measurement": "T/C", "setting": "dose: 6.25 mg/kg/injection, schedule: Q01DX009 (ip), vehicle: saline", "value": "110 % of control"},
      {"measurement": "T/C", "setting": "dose: 6.25 mg/kg/injection, schedule: Q04DX003 (ip), vehicle: saline", "value": "104 % of control"}
    ]},
    {"smiles": "COC(=O)c1ccc(CBr)cc1", "values": [
      {"measurement": "T/C", "setting": "[3]", "value": "103 % of control"},
      {"measurement": "T/C", "setting": "dose: 25.0 mg/kg/injection, schedule: Q04DX003 (ip), vehicle: saline with Tween-80", "value": "100 % of control"},
      {"measurement": "T/C", "setting": "[4]", "value": "92 % of control"},
      {"measurement": "T/C", "setting": "[5]", "value": "91 % of control"},
      {"measurement": "T/C", "setting": "[6]", "value": "100 % of control"}
    ]},
    {"smiles": "CCOc1ccc(/C=N/NS(=O)(=O)c2ccc(C)cc2)cc1", "values": [
      {"measurement": "T/C", "setting": "dose: 100.0 mg/kg/injection, schedule: Q04DX003 (ip), vehicle: Klucel (hydroxypropylcellulose) (HPC)", "value": "100 % of control"},
      {"measurement": "T/C", "setting": "[1]", "value": "92 % of control"},
      {"measurement": "T/C", "setting": "dose: 200.0 mg/kg/injection, schedule: Q04DX003 (ip), vehicle: Klucel (hydroxypropylcellulose) (HPC)", "value": "100 % of control"},
      {"measurement": "T/C", "setting": "dose: 400.0 mg/kg/injection, schedule: Q04DX003 (ip), vehicle: Klucel (hydroxypropylcellulose) (HPC)", "value": "100 % of control"}
    ]},
    {"smiles": "CCCCCCC(=O)CCCC(C)CCCC(C)C", "note": "(stereo unspecified)", "values": [
      {"measurement": "T/C", "setting": "dose: 100.0 mg/kg/injection, schedule: Q01DX009 (ip), vehicle: Klucel (hydroxypropylcellulose) (HPC)", "value": "100 % of control"},
      {"measurement": "T/C", "setting": "[1]", "value": "109 % of control"},
      {"measurement": "T/C", "setting": "[2]", "value": "118 % of control"}
    ]},
    {"smiles": "COP1(=O)OCC2OC(n3cnc4c(N)ncnc43)C(O)C2O1", "note": "(stereo unspecified)", "values": [
      {"measurement": "T/C", "setting": "dose: 100.0 mg/kg/injection, schedule: Q01DX009 (ip), vehicle: saline", "value": "88 % of control"}
    ]},
    {"smiles": "CCC[CH2][Sn]1([CH2]CCC)[O]OC(c2ccccc2)[O]1", "note": "(stereo unspecified)", "values": [
      {"measurement": "T/C", "setting": "dose: 0.5 mg/kg/injection, schedule: Q01DX009 (ip), vehicle: saline with Tween-80", "value": "109 % of control"},
      {"measurement": "T/C", "setting": "dose: 1.0 mg/kg/injection, schedule: Q01DX009 (ip), vehicle: saline with Tween-80", "value": "123 % of control"},
      {"measurement": "T/C", "setting": "dose: 1.25 mg/kg/injection, schedule: Q04DX003 (ip), vehicle: other", "value": "109 % of control"},
      {"measurement": "T/C", "setting": "dose: 1.32 mg/kg/injection, schedule: Q01DX009 (ip), vehicle: saline with Tween-80", "value": "115 % of control and 116 % of control"},
      {"measurement": "T/C", "setting": "dose: 2.0 mg/kg/injection, schedule: Q01DX009 (ip), vehicle: saline with Tween-80", "value": "110 % of control and 120 % of control"},
      {"measurement": "T/C", "setting": "dose: 2.5 mg/kg/injection, schedule: Q04DX003 (ip), vehicle: other", "value": "105 % of control and 113 % of control"},
      {"measurement": "T/C", "setting": "dose: 5.0 mg/kg/injection, schedule: Q04DX003 (ip), vehicle: other", "value": "118 % of control"},
      {"measurement": "T/C", "setting": "dose: 12.0 mg/kg/injection, schedule: Q01DX009 (ip), vehicle: saline with Tween-80", "value": "150 % of control"}
    ]},
    {"smiles": "OCCOc1c(Cl)c(Cl)c(Cl)c(Cl)c1Cl", "values": [
      {"measurement": "T/C", "setting": "[3]", "value": "100 % of control"},
      {"measurement": "T/C", "setting": "[4]", "value": "104 % of control"},
      {"measurement": "T/C", "setting": "[5]", "value": "100 % of control"},
      {"measurement": "T/C", "setting": "dose: 100.0 mg/kg/injection, schedule: Q01DX009 (ip), vehicle: saline with Tween-80", "value": "118 % of control"},
      {"measurement": "T/C", "setting": "[6]", "value": "100 % of control"}
    ]},
    {"smiles": "COC[C@H]1OC(=O)c2coc3c2[C@@]1(C)C1=C(C3=O)[C@@H]2CCC(=O)[C@@]2(C)C[C@H]1OC(C)=O", "values": [
      {"measurement": "T/C", "setting": "dose: 0.16 mg/kg/injection, schedule: Q01DX009 (ip), vehicle: saline", "value": "108 % of control"},
      {"measurement": "T/C", "setting": "dose: 0.31 mg/kg/injection, schedule: Q01DX009 (ip), vehicle: saline", "value": "115 % of control"},
      {"measurement": "T/C", "setting": "dose: 0.63 mg/kg/injection, schedule: Q01DX009 (ip), vehicle: saline", "value": "116 % of control"},
      {"measurement": "T/C", "setting": "dose: 2.5 mg/kg/injection, schedule: Q01DX009 (ip), vehicle: saline", "value": "117 % of control"}
    ]},
    {"smiles": "C[N+](C)(CC(=O)Nc1ccc(Cl)c(Cl)c1)CC(=O)c1ccc(Cl)c(Cl)c1", "values": [
      {"measurement": "T/C", "setting": "dose: 400.0 mg/kg/injection, schedule: Q04DX003 (ip), vehicle: saline sonified", "value": "87 % of control"}
    ]},
    {"smiles": "CCOC1=C(C#N)CC2(CC1)c1ccccc1-c1ccccc12", "values": [
      {"measurement": "T/C", "setting": "[6]", "value": "95 % of control"},
      {"measurement": "T/C", "setting": "[7]", "value": "95 % of control"},
      {"measurement": "T/C", "setting": "[8]", "value": "91 % of control"}
    ]},
    {"smiles": "CC(C)=CCCC(C)C/C=N\\O", "note": "(stereo unspecified)", "values": [
      {"measurement": "T/C", "setting": "dose: 12.5 mg/kg/injection, schedule: Q01DX009 (ip), vehicle: saline with Tween-80", "value": "107 % of control"},
      {"measurement": "T/C", "setting": "[3]", "value": "107 % of control"},
      {"measurement": "T/C", "setting": "[4]", "value": "96 % of control"},
      {"measurement": "T/C", "setting": "[6]", "value": "109 % of control"},
      {"measurement": "T/C", "setting": "[7]", "value": "113 % of control"},
      {"measurement": "T/C", "setting": "[8]", "value": "109 % of control"}
    ]}
  ]
}
